Peptide text beside a SMILES is read from it.
System: Botrytis cinerea (B05.10)
Assay: Resazurin antifungal assay of 180 alpha-factor peptide variants towards Botrytis (Example 2)
Format: cell-based
Parameters: key to active against Botrytis at 15 μM / active against Botrytis at 10 μM: Peptides that showed greater than 90% inhibition were considered active against Botrytis
Conditions: for Inhibition at 10 μM / Inhibition at 20 μM / Inhibition at 50 μM / Inhibition at 100 μM / Inhibition at 15 μM: % inhibition of fungal growth, Botrytis conidia, resazurin; for Inhibition at 10 μM: peptide 10 μM; for Inhibition at 20 μM: peptide 20 μM; for Inhibition at 50 μM: peptide 50 μM; for Inhibition at 100 μM: peptide 100 μM
Outline: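 Resazurin viability read-out (570/620 nm fluorescence) after a 24 h, 20° C incubation of B05.10 conidia, 5000 per well, with peptide at final 10-100 μM. Growth inhibition (%) was derived by subtracting conidia-only fluorescence; four replicates per treatment.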

SMILES	Inhibition at 10 μM	Inhibition at 20 μM	Inhibition at 50 μM	Inhibition at 100 μM	Inhibition at 15 μM (peptide 15 μM)	active against Botrytis at 15 μM (peptide 15 μM)
CC[C@H](C)[C@H](NC(=O)[C@H](CCC(N)=O)NC(=O)[C@@H](NC(=O)[C@H](Cc1c[nH]c2ccccc12)NC(=O)[C@H](CCCCN)NC(=O)[C@@H](N)Cc1c[nH]c2ccccc12)C(C)C)C(=O)N[C@@H](CCCCN)C(=O)N[C@@H](CCCCN)C(=O)NCC(=O)N[C@@H](C)C(=O)N1CCC[C@H]1C(=O)N[C@@H](CCSC)C(=O)N[C@@H](Cc1ccc(O)cc1)C(=O)O [compound 58] (H-WKWVQIKKGAPMY-OH; N-terminus and C-terminus assumed)	<90%	<90%	100%	100%		
CC[C@H](C)[C@H](NC(=O)[C@H](Cc1c[nH]c2ccccc12)NC(=O)[C@H](Cc1c[nH]cn1)NC(=O)[C@@H](N)CCCCN)C(=O)N[C@H](C(=O)N[C@@H](CC(C)C)C(=O)N[C@@H](CCCCN)C(=O)N[C@@H](CO)C(=O)NCC(=O)N[C@@H](CCSC)C(=O)N1CCC[C@H]1C(=O)N[C@@H](CCSC)C(=O)N[C@@H](Cc1ccc(O)cc1)C(=O)O)[C@@H](C)O [compound 59] (H-KHWITLKSGMPMY-OH; N-terminus and C-terminus assumed)	<90%	90.97%	100%	100%	<90%	
CC[C@H](C)[C@H](NC(=O)[C@H](CCCCN)NC(=O)[C@H](CC(C)C)NC(=O)[C@H](CCC(N)=O)NC(=O)[C@H](CC(C)C)NC(=O)[C@@H](NC(=O)[C@H](CCCCN)NC(=O)[C@@H](N)Cc1c[nH]c2ccccc12)[C@@H](C)O)C(=O)NCC(=O)N[C@@H](C)C(=O)N1CCC[C@H]1C(=O)N[C@@H](CCSC)C(=O)N[C@@H](Cc1ccc(O)cc1)C(=O)O [compound 60] (H-WKTLQLKIGAPMY-OH; N-terminus and C-terminus assumed)	<90%	<90%	100%	100%		
CSCC[C@H](NC(=O)[C@@H]1CCCN1C(=O)[C@H](CCC(N)=O)NC(=O)CNC(=O)[C@@H]1CCCN1C(=O)[C@H](Cc1ccccc1)NC(=O)[C@H](CC(C)C)NC(=O)[C@H](CCCCN)NC(=O)[C@H](CC(C)C)NC(=O)[C@H](Cc1c[nH]c2ccccc12)NC(=O)[C@H](Cc1c[nH]cn1)NC(=O)[C@@H](N)CCCCN)C(=O)N[C@@H](Cc1ccc(O)cc1)C(=O)O [compound 61] (H-KHWLKLFPGQPMY-OH; N-terminus and C-terminus assumed)	<90%	98.64%	100%	100%	<90%	
CC[C@H](C)[C@H](NC(=O)[C@H](CCCCN)NC(=O)[C@@H](NC(=O)[C@H](CCCCN)NC(=O)[C@H](CC(C)C)NC(=O)[C@H](Cc1c[nH]c2ccccc12)NC(=O)[C@H](Cc1c[nH]cn1)NC(=O)[C@@H](N)CCCCN)[C@@H](C)CC)C(=O)NCC(=O)N[C@@H](CCC(=O)O)C(=O)N1CCC[C@H]1C(=O)N[C@@H](CCSC)C(=O)N[C@@H](Cc1ccc(O)cc1)C(=O)O [compound 62] (H-KHWLKIKIGEPMY-OH; N-terminus and C-terminus assumed)	<90%	100%	100%	100%	98.89%	active
